A short description of series [1]: Stability trial, 5 days at 53° C., degradation evaluated by HPCEC-UV. Format: physicochemical. Here is the method: The evaluation of the degradation was carried out by HPCEC-UV analysis using 0.5M (pH 4) ammonium formiate as an eluent, a flow of 1.2 ml/min, and a Supelcosil LC-SCX column (25 cm, 4.6 mm, 5 micron). The product thus obtained was subjected to stability trials according to a procedure similar to the one adopted for the Comparative Example above. […] Also in this case, the evaluation of the degradation was carried out by HPCEC-UV analysis using 0.5M ammonium formiate (pH 4) as an eluent, a flow of 1.2 ml/min, and a Supelcosil LC-SCX column (25 cm, 4.6 mm, 5 μm).

In series [2] the test system is peripheral neuropathies caused by diabetes. The note with it: 500 mg twice a day for two weeks; cited from earlier work.

Take SAMe Phytate Salt [Example 1]: in series [1] (5 days at 53° C.), the stability result was “very stable”.

Regarding “SAMe salt with phytic acid [SAMe phytate complex]”, the SAMe ion is 23.2 % p/p in series [1] (Lot 1, after 5 days at 53° C.); 25.2 % p/p in series [1] (Lot 1, immediately after preparation); 23.3 % p/p in series [1] (Lot 2, after 5 days at 53° C.); 25.1 % p/p in series [1] (Lot 2, immediately after preparation); 23.2 % p/p in series [1] (Lot 3, after 5 days at 53° C.); 25.3 % p/p in series [1] (Lot 3, immediately after preparation). For the same compound, the SAMe ion in series [1] (Mean of 3 lots, after 5 days at 53° C.) is listed as 23.2 % p/p; in series [1] (Mean of 3 lots, immediately after preparation), 25.2 % p/p. Further, the “% Variation of SAMe ion” value is listed as −7.9% in series [1] (Lot 1, after 5 days at 53° C. vs initial); −7.2% in series [1] (Lot 2, after 5 days at 53° C. vs initial); −8.3% in series [1] (Lot 3, after 5 days at 53° C. vs initial); −7.8% in series [1] (Mean of 3 lots, after 5 days at 53° C. vs initial).

In the case of `O[C@H]1[C@H](O)[C@@H](O)[C@H](O)[C@@H](O)[C@H]1O` [inositol], the therapeutic result in series [2] is given as “considerable results”.

These data come from patent publication US20090175914A1, “Salts or Complexes of Methyl Donors With Phytic Acid or Its Derivatives and Method for the Synthesis Thereof” (priority 2005, published 2009).
